Laboratory results from PubChem BioAssay (NCI).
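Compound exposure: 48 hours, 5 concentrations, 96-well plates. GI50 is the concentration that inhibits growth by half. TGI: total growth inhibition.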 Where a SMILES comes first, the peptide text is derived from it. Bridges are numbered along the chain shown (N, C = ends). [ ]: non-standard residue; d: D form. The star is where a group is joined. Phe(3,5-F2) = N[C@@H](Cc1cc(F)cc(F)c1)C(=O)O; Pro(4R-Me) = C[C@H]1CN[C@H](C(=O)O)C1; aThr = C[C@H](O)[C@H](N)C(=O)O; Pip = O=C(O)[C@@H]1CCCCN1; X7 = CCC/C=C/C=C/C(=O)*

What was measured:
Test in all cases: NCI-60 cell line screen, 48 h
786-0 renal = system: 786-0 renal
A498 renal = system: A498 renal
A549 NSCLC = system: A549 NSCLC
ACHN renal = system: ACHN renal
BT-549 breast = system: BT-549 breast
CAKI-1 renal = system: CAKI-1 renal
CCRF-CEM leukemia = system: CCRF-CEM leukemia
COLO 205 colon = system: COLO 205 colon
DU-145 prostate = system: DU-145 prostate
EKVX NSCLC = system: EKVX NSCLC
HCC-2998 colon = system: HCC-2998 colon
HCT-116 colon = system: HCT-116 colon
HCT-15 colon = system: HCT-15 colon
HL-60(TB) leukemia = system: HL-60(TB) leukemia
HOP-62 NSCLC = system: HOP-62 NSCLC
HOP-92 NSCLC = system: HOP-92 NSCLC
HS 578T breast = system: HS 578T breast
HT29 colon = system: HT29 colon
IGROV1 ovarian = system: IGROV1 ovarian
K-562 leukemia = system: K-562 leukemia
KM12 colon = system: KM12 colon
LOX IMVI melanoma = system: LOX IMVI melanoma
M14 melanoma = system: M14 melanoma
MALME-3M melanoma = system: MALME-3M melanoma
MCF7 breast = system: MCF7 breast
MDA-MB-231 breast = system: MDA-MB-231 breast
MDA-MB-435 = system: MDA-MB-435
MOLT-4 leukemia = system: MOLT-4 leukemia
NCI-H226 lung = system: NCI-H226 lung
NCI-H23 lung = system: NCI-H23 lung
NCI-H460 lung = system: NCI-H460 lung
NCI-H522 lung = system: NCI-H522 lung
NCI/ADR-RES ovarian = system: NCI/ADR-RES ovarian
OVCAR-3 ovarian = system: OVCAR-3 ovarian
OVCAR-4 ovarian = system: OVCAR-4 ovarian
OVCAR-5 ovarian = system: OVCAR-5 ovarian
OVCAR-8 ovarian = system: OVCAR-8 ovarian
PC-3 prostate = system: PC-3 prostate
RPMI-8226 leukemia = system: RPMI-8226 leukemia
RXF 393 renal = system: RXF 393 renal
SF-268 CNS = system: SF-268 CNS
SF-295 CNS = system: SF-295 CNS
SF-539 CNS = system: SF-539 CNS
SK-MEL-2 melanoma = system: SK-MEL-2 melanoma
SK-MEL-28 melanoma = system: SK-MEL-28 melanoma
SK-MEL-5 melanoma = system: SK-MEL-5 melanoma
SK-OV-3 ovarian = system: SK-OV-3 ovarian
SN12C renal = system: SN12C renal
SNB-19 CNS = system: SNB-19 CNS
SNB-75 CNS = system: SNB-75 CNS
SR leukemia = system: SR leukemia
SW-620 colon = system: SW-620 colon
T-47D breast = system: T-47D breast
TK-10 renal = system: TK-10 renal
U251 CNS = system: U251 CNS
UACC-257 melanoma = system: UACC-257 melanoma
UACC-62 melanoma = system: UACC-62 melanoma
UO-31 renal = system: UO-31 renal

`CCC/C=C/C=C/C(=O)N[C@@H](Cc1cc(F)cc(F)c1)C(=O)N[C@@H]1C(=O)N2CCC[C@H]2C(=O)N2CCCC[C@H]2C(=O)N[C@@H](C)C(=O)N2C[C@H](C)C[C@H]2C(=O)O[C@H]1C` (X7-[Phe(3,5-F2)][aThr]P[Pip]A[Pro(4R-Me)]; ester 2-C) showed a GI50 (786-0 renal) of 842 nM, a TGI (786-0 renal) of 31000 nM and a GI50 (A498 renal) of 2430 nM. It also gave a TGI (A498 renal) of 28400 nM, a GI50 (A549 NSCLC) of 506 nM and a TGI (A549 NSCLC) greater than 58500 nM. The GI50 (ACHN renal) was 1120 nM, the TGI (ACHN renal) was 28700 nM and the GI50 (BT-549 breast) was 370 nM. For the same compound, the TGI (BT-549 breast) was 3400 nM, the GI50 (CAKI-1 renal) was 415 nM and the TGI (CAKI-1 renal) was 12500 nM. It also gave a GI50 (CCRF-CEM leukemia) of 411 nM, a TGI (CCRF-CEM leukemia) of 14500 nM and a GI50 (COLO 205 colon) of 286 nM. For the same compound, the TGI (COLO 205 colon) was 850 nM, the GI50 (DU-145 prostate) was 619 nM and the TGI (DU-145 prostate) was greater than 66700 nM. For the same compound, the GI50 (EKVX NSCLC) was 491 nM, the TGI (EKVX NSCLC) was 26200 nM and the GI50 (HCC-2998 colon) was 463 nM. It also gave a TGI (HCC-2998 colon) of 4930 nM, a GI50 (HCT-116 colon) of 420 nM and a TGI (HCT-116 colon) of 11400 nM. The GI50 (HCT-15 colon) was 482 nM, the TGI (HCT-15 colon) was 11000 nM and the GI50 (HL-60(TB) leukemia) was 404 nM. It also gave a TGI (HL-60(TB) leukemia) of 5830 nM, a GI50 (HOP-62 NSCLC) of 516 nM and a TGI (HOP-62 NSCLC) of 16900 nM. It also gave a GI50 (HOP-92 NSCLC) of 313 nM, a TGI (HOP-92 NSCLC) of 3740 nM and a GI50 (HS 578T breast) of 594 nM. The TGI (HS 578T breast) was 17400 nM, the GI50 (HT29 colon) was 586 nM and the TGI (HT29 colon) was 4160 nM. It also gave a GI50 (IGROV1 ovarian) of 1780 nM, a TGI (IGROV1 ovarian) of 23700 nM and a GI50 (K-562 leukemia) of 402 nM. It also gave a TGI (K-562 leukemia) greater than 100000 nM, a GI50 (KM12 colon) of 1810 nM and a TGI (KM12 colon) of 29000 nM. For the same compound, the GI50 (LOX IMVI melanoma) was 433 nM, the TGI (LOX IMVI melanoma) was 12800 nM and the GI50 (M14 melanoma) was 461 nM. It also gave a TGI (M14 melanoma) of 5230 nM, a GI50 (MALME-3M melanoma) of 1010 nM and a TGI (MALME-3M melanoma) of 14000 nM. For the same compound, the GI50 (MCF7 breast) was 354 nM, the TGI (MCF7 breast) was 13600 nM and the GI50 (MDA-MB-231 breast) was 409 nM. It also gave a TGI (MDA-MB-231 breast) of 3360 nM, a GI50 (MDA-MB-435) of 412 nM and a TGI (MDA-MB-435) of 5710 nM. For the same compound, the GI50 (MOLT-4 leukemia) was 1110 nM, the TGI (MOLT-4 leukemia) was greater than 44000 nM and the GI50 (NCI-H226 lung) was 547 nM. The TGI (NCI-H226 lung) was 7970 nM, the GI50 (NCI-H23 lung) was 389 nM and the TGI (NCI-H23 lung) was 13400 nM. For the same compound, the GI50 (NCI-H460 lung) was 500 nM, the TGI (NCI-H460 lung) was 14100 nM and the GI50 (NCI-H522 lung) was 462 nM. It also gave a TGI (NCI-H522 lung) of 13000 nM, a GI50 (NCI/ADR-RES ovarian) of 2170 nM and a TGI (NCI/ADR-RES ovarian) of 16100 nM. For the same compound, the GI50 (OVCAR-3 ovarian) was 596 nM, the TGI (OVCAR-3 ovarian) was 17100 nM and the GI50 (OVCAR-4 ovarian) was 395 nM. It also gave a TGI (OVCAR-4 ovarian) of 19300 nM, a GI50 (OVCAR-5 ovarian) of 583 nM and a TGI (OVCAR-5 ovarian) of 6130 nM. The GI50 (OVCAR-8 ovarian) was 414 nM, the TGI (OVCAR-8 ovarian) was greater than 46800 nM and the GI50 (PC-3 prostate) was 367 nM. For the same compound, the TGI (PC-3 prostate) was 17200 nM, the GI50 (RPMI-8226 leukemia) was 339 nM and the TGI (RPMI-8226 leukemia) was 4760 nM. It also gave a GI50 (RXF 393 renal) of 1500 nM, a TGI (RXF 393 renal) of 8290 nM and a GI50 (SF-268 CNS) of 957 nM. For the same compound, the TGI (SF-268 CNS) was greater than 46400 nM, the GI50 (SF-295 CNS) was 358 nM and the TGI (SF-295 CNS) was 2030 nM. The GI50 (SF-539 CNS) was 744 nM, the TGI (SF-539 CNS) was 13500 nM and the GI50 (SK-MEL-2 melanoma) was 422 nM. The TGI (SK-MEL-2 melanoma) was 5100 nM, the GI50 (SK-MEL-28 melanoma) was 987 nM and the TGI (SK-MEL-28 melanoma) was 14100 nM. It also gave a GI50 (SK-MEL-5 melanoma) of 509 nM, a TGI (SK-MEL-5 melanoma) of 3310 nM and a GI50 (SK-OV-3 ovarian) of 499 nM. It also gave a TGI (SK-OV-3 ovarian) of 12800 nM, a GI50 (SN12C renal) of 419 nM and a TGI (SN12C renal) of 15500 nM. For the same compound, the GI50 (SNB-19 CNS) was 405 nM, the TGI (SNB-19 CNS) was 35200 nM and the GI50 (SNB-75 CNS) was 313 nM. It also gave a TGI (SNB-75 CNS) of 12700 nM, a GI50 (SR leukemia) of 892 nM and a TGI (SR leukemia) of 26400 nM. The GI50 (SW-620 colon) was 704 nM, the TGI (SW-620 colon) was greater than 46100 nM and the GI50 (T-47D breast) was 453 nM. The TGI (T-47D breast) was 13900 nM, the GI50 (TK-10 renal) was 1050 nM and the TGI (TK-10 renal) was 43700 nM. It also gave a GI50 (U251 CNS) of 451 nM, a TGI (U251 CNS) of 16500 nM and a GI50 (UACC-257 melanoma) of 356 nM. The TGI (UACC-257 melanoma) was 4160 nM, the GI50 (UACC-62 melanoma) was 522 nM and the TGI (UACC-62 melanoma) was 6370 nM. The GI50 (UO-31 renal) was 1080 nM and the TGI (UO-31 renal) was 27500 nM.
